The values below come from patent EP0931078B1, “NOVEL TRICYCLIC PIPERIDINYL COMPOUNDS USEFUL AS INHIBITORS OF FARNESYL-PROTEIN TRANSFERASE” (SCHERING CORPORATION, priority 1996, dated 1998).

The test has as its target T1, partially purified rat brain famesyl protein transferase (FPT) (Rattus norvegicus, UniProt Q02293+Q04631).
T1 construct: partially purified rat brain famesyl protein transferase (FPT); from tissue; host or cells: rat brain
The test can be described thus: In vitro enzyme assay: inhibition of Ras-CVLS farnesylation by farnesyl protein transferase (FPT). Format: biochemical. The protocol:
• 1. In vitro enzyme assays: FPT IC50 (inhibition of famesyl protein transferase, in vitro enzyme assay) are determined by the methods disclosed in […] or WO 95/10516. […] Cell-based assay. COS IC50 values refer to the COS cells activity inhibition of Ras processing, are determined by the methods disclosed in […] or WO 95/10516.

The structures appear in SMILES notation. pIC50: −log10 of the molar value. Like-named read-outs stand apart in the source and are kept apart here. A value given as a limit tells only on which side of the number the result lay.

T1 sequence (Q02293 whole entry, one chain of several): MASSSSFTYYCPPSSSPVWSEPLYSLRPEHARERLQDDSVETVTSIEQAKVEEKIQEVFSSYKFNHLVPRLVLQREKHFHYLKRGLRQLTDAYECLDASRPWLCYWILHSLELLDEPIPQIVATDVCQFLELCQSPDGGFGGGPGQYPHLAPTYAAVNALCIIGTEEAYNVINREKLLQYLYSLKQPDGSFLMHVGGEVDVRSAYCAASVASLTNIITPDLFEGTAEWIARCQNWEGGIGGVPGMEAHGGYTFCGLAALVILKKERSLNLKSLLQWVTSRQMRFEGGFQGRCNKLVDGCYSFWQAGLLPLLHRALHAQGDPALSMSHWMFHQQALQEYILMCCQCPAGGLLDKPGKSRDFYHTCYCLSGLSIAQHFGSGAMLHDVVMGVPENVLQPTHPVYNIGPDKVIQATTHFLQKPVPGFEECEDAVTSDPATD

As for `O=C(NCCc1ccccn1)C1CCN(C2c3ccc(Cl)cc3CCc3cc(Br)cnc32)CC1` (racemic) [Example 6, 1-(3-Bromo-8-chloro-6,11-dihydro-5H-benzo[5,6]cyclohepta[1,2-b]pyridin-11-yl)-N-(2-pyridiriylethyl)-4-piperidinecarboxamide], under “read-out: FPT Inhibition”, the inhibition at 1.1 µM stood at 9%.

For the compound `NC(=O)N1CCC(NC(=O)C2CCN(C3c4ccc(Cl)cc4CCc4cc(Br)cnc43)CC2)CC1` (racemic) [Example 7, 1-(3-Bromo-8-chloro-6,11-dihydro-5H-benzo[5,6]cyclohepta[1,2-b]pyridin-11-yl)-N-[4-(N-carboxamidopiperidinyl)]-4-piperidinecarboxamide], testing at 0.36 µM (@ 0.36 µM) gave an inhibition of 15%.

`NC(=O)N1CCC(CNC(=O)C2CCN(C3c4ccc(Cl)cc4CCc4cc(Br)cnc43)CC2)CC1` (racemic) [Example 8, 1-(3-Bromo-8-chloro-6,11-dihydro-5H-benzo[5,6]cyclohepta[1,2-b]pyridin-11-yl)-N-[4-(N-carboxamidopiperidinyl)methyl]-4-piperidinecarboxamide]: under “@ 1.04 µM”, the inhibition at 1.04 µM came to 41%.

`NCC1CCN(C(=O)C2CCN(C3c4ccc(Cl)cc4CCc4cc(Br)cnc43)CC2)CC1` (racemic) [Example 9 Step B]: the inhibition at 0.38 µM (@ 0.38 µM, read-out: FPT Inhibition) came out at 16%.

Turning to `O=C(NCc1cccnc1)C1CCCN(C2c3ccc(Cl)cc3CCc3cc(Br)cnc32)C1` (single isomer, unassigned) [Example 10 Isomer A, 1-(3-Bromo-8-chloro-6,11-dihydro-5H-benzo[5,6]cyclohepta[1,2-b]pyridin-11-yl)-N-(3-pyridinylmethyl)-3-piperidinecarboxamide], the inhibition at 1.14 µM (read-out: FPT Inhibition) stood at 6.1%.

In the case of `O=C(NCc1cccnc1)C1CCCN(C2c3ccc(Cl)cc3CCc3cc(Br)cnc32)C1` (single isomer, unassigned) [Example 10 Isomer B, 1-(3-Bromo-8-chloro-6,11-dihydro-5H-benzo[5,6]cyclohepta[1,2-b]pyridin-11-yl)-N-(3-pyridinylmethyl)-3-piperidinecarboxamide], the pIC50 was 6.71.

In turn, `O=C(NCc1cccnc1)C1CCCN(C2c3ccc(Cl)cc3CCc3cc(Br)cnc32)C1` (single isomer, unassigned) [Example 10 Isomer C, 1-(3-Bromo-8-chloro-6,11-dihydro-5H-benzo[5,6]cyclohepta[1,2-b]pyridin-11-yl)-N-(3-pyridinylmethyl)-3-piperidinecarboxamide] had a pIC50 of 6.75. The pIC50 values of the last two compounds are within 0.2 log units of each other.

Regarding `O=C(NCc1cccnc1)C1CCCN(C2c3ccc(Cl)cc3CCc3cc(Br)cnc32)C1` (single isomer, unassigned) [Example 10 Isomer D, 1-(3-Bromo-8-chloro-6,11-dihydro-5H-benzo[5,6]cyclohepta[1,2-b]pyridin-11-yl)-N-(3-pyridinylmethyl)-3-piperidinecarboxamide], the pIC50 was 6.73.

On to `O=C(NCc1ccncc1)[C@@H]1CCCCN1C1c2ccc(Cl)cc2CCc2cc(Br)cnc21` (single isomer, unassigned) [Example 12, 1-(3-Bromo-8-chloro-6,11-dihydro-5H-benzo[5,6]cyclohepta[1,2-b]pyridin-11-yl)-N-(4-pyridinylmethyl)-2S-piperidinecarboxamide], for which the inhibition at 1.1 µM (@ 1.1 µM, read-out: FPT Inhibition) is 18%.

For `O=C(NCc1ccncc1)[C@@H]1CCCCN1C1c2ccc(Cl)cc2CCc2cc(Br)cnc21` (single isomer, unassigned) [Example 13, 1-(3-Bromo-8-chloro-6,11-dihydro-5H-benzo[5,6]cyclohepta[1,2-b]pyridin-11-yl)-N-(4-pyridinylmethyl)-2S-piperidinecarboxamide], the “FPT Inhibition” value (@ 1.1 µM) was determined as 21%.

Compound `O=C(NCc1cccnc1)C1CCCN(C2c3ncc(Br)cc3CCc3cc(Cl)cc(Br)c32)C1` (single isomer, unassigned) [Example 17 Isomer A, 1-(3,10-Dibromo-8-chloro-6,11-dihydro-5H-benzo[5,6]cyclohepta[1,2-b]pyridin-11-yl)-N-(3-pyridinylmethyl)-3-piperidinecarboxamide] had a pIC50 greater than 8.00.

Regarding `O=C(NCc1cccnc1)C1CCCN(C2c3ncc(Br)cc3CCc3cc(Cl)cc(Br)c32)C1` (single isomer, unassigned) [Example 17 Isomer B, 1-(3,10-Dibromo-8-chloro-6,11-dihydro-5H-benzo[5,6]cyclohepta[1,2-b]pyridin-11-yl)-N-(3-pyridinylmethyl)-3-piperidinecarboxamide], the inhibition at 0.1 µM (read-out: FPT Inhibition) was determined as 3.4%.

For the compound `O=C(NCc1ccc[n+]([O-])c1)[C@@H]1CCCN(C2c3ncc(Br)cc3CCc3cc(Cl)cc(Br)c32)C1` (single isomer, unassigned) [Example 51, 1-(3,10-Dibromo-8-chioro-6,11-dihydro-5H-benzo[5,6]cyclohepta[1,2-b]pyridin-11-yl)-N-(3-pyridinylmethyl)-3-piperidinecarboxamide N1-oxide], the IC50 (unit printed as uM (Examples 49-54)) turned out to be 0.1 µM.

Regarding `O=C(NCc1ccncc1)[C@H]1CCCCN1C1c2ccc(Cl)cc2CCc2cc(Br)cnc21` (single isomer, unassigned) [Isomer A2 amide], where the note is “@ 1.1 µM”, the “FPT Inhibition” value was “FPT Inhibition = 0% @ 1.1 µM”.

Turning to `O=C(NCc1ccncc1)[C@H]1CCCCN1C1c2ccc(Cl)cc2CCc2cc(Br)cnc21` (single isomer, unassigned) [Isomer B2 amide], the “FPT Inhibition” value (@ 1.1 µM) is on record as “FPT Inhibition = 13% @ 1.1 µM”.

`O=C(NCc1cccnc1)C1CCCCN1C1c2ccc(Cl)cc2CCc2cc(Br)cnc21` (single isomer, unassigned) [Isomer C1 amide] gave a pIC50 of 6.52.

In the case of `O=C(NCc1cccnc1)[C@H]1CCCCN1C1c2ccc(Cl)cc2CCc2cc(Br)cnc21` (single isomer, unassigned) [Isomer C2 amide], where the note is “@ 0.38 µM”, the “FPT Inhibition” value was “FPT Inhibition =11% @ 0.38 µM”.

For `O=C(NCc1cccnc1)C1CCCCN1C1c2ccc(Cl)cc2CCc2cc(Br)cnc21` (single isomer, unassigned) [Isomer D1 amide], the pIC50 is 6.80.

`O=C(NCc1cccnc1)[C@H]1CCCCN1C1c2ccc(Cl)cc2CCc2cc(Br)cnc21` (single isomer, unassigned) [Isomer D2 amide]: for the setting “@ 0.38 µM”, the “FPT Inhibition” value is listed as “FPT Inhibition = 0% @ 0.38 µM”.

With `O=C(Nc1ccncc1)C1CCN(C2c3ccc(Cl)cc3CCc3cccnc32)CC1` (stereo not drawn) [Example 1, 1-[8-Chloro-6,11-dihydro-5H-benzo[5,6]cyclohepta[1,2-b]pyridin-11-yl]-N-(4-pyridinyl)-4-piperidinecarboxamide], the pIC50 was 5.03.

Turning to `O=C(Nc1ccncc1)C1CCN(C2c3ccc(Cl)cc3CCc3cc(Br)cnc32)CC1` (stereo not drawn) [Example 2, 1-(3-Bromo-8-chloro-6,11-dihydro-5H-benzo[5,6]cyclohepta[1,2-b]pyridin-11-yl)-N-(4-pyridinyl)-4-piperidinecarboxamide], for the setting “read-out: FPT Inhibition”, the inhibition at 0.39 µM stood at 0%.

Take `O=C(NCc1ccncc1)C1CCN(C2c3ccc(Cl)cc3CCc3cc(Br)cnc32)CC1` (stereo not drawn) [Example 3, 1-(3-Bromo-8-chloro-6,11-dihydro-5H-benzo[5,6]cyclohepta[1,2-b]pyridin-11-yl)-N-(4-pyridinylmethyl)-4-piperidinecarboxamide]: the inhibition at 1.1 µM (read-out: FPT Inhibition) was 21%.

`O=C(NCc1cccnc1)C1CCN(C2c3ccc(Cl)cc3CCc3cc(Br)cnc32)CC1` (stereo not drawn) [Example 4, 1-(3-Bromo-8-chloro-6,11-dihydro-5H-benzo[5,6]cyclohepta[1,2-b]pyridin-11-yl)-N-(3-pyridinylmethyl)-4-piperidinecarboxamide] showed a pIC50 of 5.89.

In turn, `O=C(NCc1ccccn1)C1CCN(C2c3ccc(Cl)cc3CCc3cc(Br)cnc32)CC1` (stereo not drawn) [Example 5, 1-(3-Bromo-8-chloro-6,11-dihydro-5H-benzo[5,6]cyclohepta[1,2-b]pyridin-11-yl)-N-(2-pyridinyimethyl)-4-piperidinecarboxamide] gave a pIC50 of 5.74.

As for `O=C(NC1CCNCC1)C1CCN(C2c3ccc(Cl)cc3CCc3cc(Br)cnc32)CC1` (stereo not drawn) [Example 7 Step B, 1-(3-Bromo-8-chloro-6,11-dihydro-5H-benzo[5,6]cyclohepta[1,2-b]pyridin-11-yl)-N-(4-piperidinyl)-4-piperidinecarboxamide], where the note is “read-out: FPT Inhibition”, the inhibition at 0.39 µM is 8.75%.

On to `O=C(NCC1CCNCC1)C1CCN(C2c3ccc(Cl)cc3CCc3cc(Br)cnc32)CC1` (stereo not drawn) [Example 8 Step B, 1-(3-Bromo-8-chloro-6,11-dihydro-5H-benzo[5,6]cyclohepta[1,2-b]pyridin-11-yl)-N-(4-piperidinylmethyl)-4-piperidinecarboxamide], for which, for the setting “read-out: FPT Inhibition”, the inhibition at 0.38 µM turned out to be 12%.

`NC(=O)NCC1CCN(C(=O)C2CCN(C3c4ccc(Cl)cc4CCc4cc(Br)cnc43)CC2)CC1` (stereo not drawn) [Example 9, 1-[1-(3-Bromo-8-chloro-6,11-dihydro-5H-benzo[5,6]cyclohepta[1,2-b]pyridin-11-yl)-4-piperidinylcarbonyl]-4-[(1-aminomethanamido)methyl]piperidine] gave a pIC50 of 6.18.

`O=C(NCc1cccnc1)C1CCCN(C2c3ccc(Cl)cc3CCc3cc(Br)cnc32)C1` (stereo not drawn) [Example 10, 1-(8-chloro-3-bromo-5,6-dihydro-11H-benzo[5,6]-cyclohepta[1,2-b]pyridin-11-yl)piperidine-3-(N-3-pyridylmethylamino)carboxamide] gave a pIC50 of 6.68.

For the compound `O=C(Nc1cccnc1)C1CCCN(C2c3ccc(Cl)cc3CCc3cc(Br)cnc32)C1` (stereo not drawn) [Example 11, 1-(3-bromo-8-chloro-6,11-dihydro-5H-benzo[5,6]cyclohepta [1,2-b]pyridin-11-yl)-N-(3-pyridinyl)-3-piperidinecarboxamide], the pIC50 is 7.19.

In turn, `O=C(NCc1cccnc1)C1CCCN(C2c3ncc(Br)cc3CCc3cc(Cl)cc(Br)c32)C1` (stereo not drawn) [Example 16, 1-(3,10-Dibromo-8-chloro-6,11-dihydro-5H-benzo[5,6]cyclohepta[1,2-b]pyridin-11-yl)-N-(3-pyridinylmethyl)-3-piperidinecarboxamide] gave a pIC50 of 7.57. This pIC50 is 0.38 log units higher than that of the compound before.
